Structures can show the parent of a compound that is named as a salt.
How the values were obtained:
human 5-HT2B receptor = molecular target: T1, human 5-HT2B receptor (Homo sapiens, UniProt P41595); assay: 5-HT2B receptor binding test; conditions: human 5-HT2B receptor expressing HEK293-EBNA cell membrane; radio-ligand [3H] Mesulergine or [3H] Serotonin
T1 construct: expressed in transfected cells; host or cells: HEK293-EBNA
Experimental: Effects of the compound (I) of the present invention were verified by the following pharmacological tests. • Test Method (1) 5-HT2B Receptor Binding Test • (i) Preparation of Membrane Sample
(§1) Cultured human 5-HT2B receptor expressing HEK293-EBNA cells were washed with a phosphate buffer (PBS)(−). The cells were peeled off with a scraper in the presence of PBS(−), and the cells were recovered by centrifugation (1,000 rpm, 10 minutes, 4° C.). In the presence of 5 mM tris-hydrochloric acid (Tris-HCl) (pH 7.4) buffer, homogenized using a homogenizer (registered trademark: Polytron (PTA 10-TS)), and centrifugation-treated (40,000×g, 10 minutes, 4° C.). In the presence of 50 mM Tris-HCl (pH 7.4) buffer, suspended using Glass-Teflon (registered trademark) homogenizer. By carrying out centrifugation treatment (40,000×g, 10 minutes, 4° C.), suspended in 50 mM Tris-HCl (pH 7.4) and stored at −80° C.
(§2) (ii) Receptor Binding Test
A total volume of 500 μl containing 50 mM Tris-HCl, a 4 mM CaCl2 (pH 7.4) buffer, a human 5-HT2B receptor expressing HEK293-EBNA cell membrane preparation and a radio-ligand [^3H] Mesulergine (3.1 TBq/mmol;) or [^3H] Serotonin (5-Hydroxytryptamine) (3.7 TBq/mmol;) was incubated at 25° C. for 1 hour. The compound was dissolved in 100% dimethyl sulfoxide (DMSO) and diluted to respective concentrations. Binding quantity in the presence of 1 μM ritanserin was regarded as the nonspecific binding, and a result of subtracting the nonspecific binding quantity from the total binding quantity was regarded as the specific binding quantity. After adding 4 ml of 50 mM Tris-HCl buffer (pH 7.4) and filtering under a reduced pressure using a GF/B glass filter, the filter was washed (4 ml×3) with the same buffer. By soaking the glass filter in 5 ml of a liquid scintillator (trade name: Aquasol-2), the radioactivity quantity was measured using a liquid scintillation counter. […] Ex represents the Example compound number which is described later.

human 5-HT7 receptor = molecular target: T2, human 5-HT7 receptor (Homo sapiens, UniProt P34969); assay: 5-HT7 receptor binding test; conditions: human 5-HT7 receptor expressing CHO cell membrane; radio-ligand [3H] 5-HT
T2 construct: expressed in transfected cells; host or cells: CHO
Experimental: Test Method (2) 5-HT7 Receptor Binding Test (i) Preparation of Membrane Sample
as §1, with “5-HT7” for “5-HT2B”, “CHO” for “HEK293-EBNA”, “PBS(−).” for “a phosphate buffer (PBS)(−).”, “Tris-HCl” for “tris-hydrochloric acid (Tris-HCl)”
as §2
A total volume of 500 μl containing 50 mM Tris-HCl, a 4 mM CaCl2 (pH 7.4) buffer, a human 5-HT7 receptor expressing CHO cell membrane preparation and a radio-ligand [^3H] 5-HT (3.40 TBq/mmol) was incubated at 25° C. for 1 hour. The compound was dissolved in 100% DMSO and diluted to respective concentrations.
Binding quantity in the presence of 10 μM metergoline was regarded as the nonspecific binding, and a result of subtracting the nonspecific binding quantity from the total binding quantity was regarded as the specific binding quantity. After adding 4 ml of 50 mM Tris-HCl buffer (pH 7.4) and filtering under a reduced pressure using a GF/B glass filter, the filter was washed (4 ml×3) with the same buffer. By soaking the glass filter in 5 ml of a liquid scintillator (trade name: Aquasol-2), the radioactivity quantity was measured using a liquid scintillation counter.

male Wistar rats = assay: Defecation suppressing effect at the time of restraint stress loading (rat restraint stress defecation model); format: in vivo; conditions: for dose from which a significant suppressing action (number of feces excreted) is shown: p.o.; for defecation-suppressing action: 10 mg/kg p.o., restraint stress loaded 30 minutes after the administration; for number of feces excreted, in comparison with the non-administration group: 1, 3 or 10 mg/kg administration group, N=10
Experimental: Test Method (4) Defecation Suppressing Effect at the Time of Restraint Stress Loading
The IBS-treating effect of the compound (I) of the present invention was evaluated using a test method in which the amount of excreted feces is measured by loading a restraint stress on rats (see “The Journal of Pharmacology Experimental Therapeutics”, (USA), 1992, vol. 261, p. 297-303).
The agent to be tested was administered to male Wistar rats (body weight 250 to 320 g, 10 animals for each group), and a restraint stress was loaded 30 minutes to 3 hours thereafter. A restraint cage (trade name: KN-468, 265 mm in width×95 mm in length×200 mm in height, Natsume Seisakusho, Tokyo) was used for the restraint stress loading, and the number of feces excreted during 1 hour after the stress loading was counted.

5-HT2B receptor = conditions: versus 5-HT1A, 5-HT1B, 5-HT2A, 5-HT2C, 5-HT3, 5-HT6, 5-HT7, α1, M1, D2 and the like; cited from earlier work
[1] = restraint stress loaded 1 hour after the administration

T1 sequence (P41595 whole entry): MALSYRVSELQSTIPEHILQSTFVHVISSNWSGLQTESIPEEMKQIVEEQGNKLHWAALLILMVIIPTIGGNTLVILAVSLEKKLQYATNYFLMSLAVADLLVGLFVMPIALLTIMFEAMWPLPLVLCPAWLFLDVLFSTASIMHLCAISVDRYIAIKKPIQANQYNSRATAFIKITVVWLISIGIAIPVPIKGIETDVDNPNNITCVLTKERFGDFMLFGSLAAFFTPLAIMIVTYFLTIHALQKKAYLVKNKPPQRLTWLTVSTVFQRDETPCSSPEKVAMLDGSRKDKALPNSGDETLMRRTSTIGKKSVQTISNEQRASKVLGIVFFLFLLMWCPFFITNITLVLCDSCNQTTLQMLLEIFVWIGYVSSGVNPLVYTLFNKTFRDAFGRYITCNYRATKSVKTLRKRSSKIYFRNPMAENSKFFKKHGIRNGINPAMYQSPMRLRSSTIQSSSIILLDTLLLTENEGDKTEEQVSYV
T2 sequence (P34969 whole entry): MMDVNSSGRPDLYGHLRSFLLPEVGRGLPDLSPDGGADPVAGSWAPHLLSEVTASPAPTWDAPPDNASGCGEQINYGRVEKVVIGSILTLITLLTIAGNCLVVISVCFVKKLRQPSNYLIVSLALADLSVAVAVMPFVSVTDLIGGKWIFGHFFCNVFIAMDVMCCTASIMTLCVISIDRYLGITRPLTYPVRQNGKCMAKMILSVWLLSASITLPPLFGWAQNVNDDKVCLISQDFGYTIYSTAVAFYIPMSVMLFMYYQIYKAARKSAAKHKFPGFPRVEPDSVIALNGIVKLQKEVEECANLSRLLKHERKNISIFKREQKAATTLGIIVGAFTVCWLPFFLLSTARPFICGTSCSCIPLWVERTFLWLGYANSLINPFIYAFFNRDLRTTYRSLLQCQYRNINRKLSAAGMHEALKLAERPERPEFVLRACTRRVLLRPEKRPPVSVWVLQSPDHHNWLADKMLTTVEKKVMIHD

Ki (human 5-HT2B receptor) [nM]	Ki (human 5-HT7 receptor) [nM]	Structure (SMILES)	other results
2.7	2.8	NC(N)=NC(=O)c1ccc2c(c1)[nH]c(=O)n2Cc1ccc(F)cc1 [Example 10, N-[1-(4-fluoro-benzyl)-2-oxo-2,3-dihydro-1H-benzimidazole-5-carbonyl]-guanidine hydrochloride]	
3.4	3.4	Cc1c(C)n(Cc2ccc(F)cc2)c2ccc(C(=O)NCCN(C)C)cc12 [Example 156]	
0.12	1.3	CCc1c(C)n(Cc2ccc(F)cc2)c2ccc(C(=O)N=C(N)N)cc12 [Example 103, N-(diaminomethylene)-3-ethyl-1-(4-fluorobenzyl)-2-methyl-1H-indole-5-carboxamide]	dose from which a significant suppressing action (number of feces excreted) is shown (male Wistar rats; [1]): ≥ 1 mg/kg
0.19	4.3	CCc1c(C)n(Cc2ccc(F)cc2)c2ccc(C(=O)NCCN(C)C)cc12 [Example 226]	dose from which a significant suppressing action (number of feces excreted) is shown (male Wistar rats; [1]): ≥ 1 mg/kg
		CC1CCN(CC[C@H]2CCCN2S(=O)(=O)c2cccc(O)c2)CC1 [SB-269970, (R)-3-(2-(2-(4-methylpiperidin-1-yl)ethyl)pyrrolidine-1-sulfonyl)phenol, reference compound]	defecation-suppressing action (male Wistar rats): did not show the defecation-suppressing action; number of feces excreted, in comparison with the non-administration group (male Wistar rats): Significant difference was not found
0.24	0.66	Cc1c(C)n(Cc2ccc(F)cc2)c2ccc(C(=O)N=C(N)N)cc12 [Example 24]	
0.12	0.36	Cc1c(S(C)(=O)=O)c2cc(C(=O)N=C(N)N)ccc2n1Cc1ccc(F)cc1 [Example 102]	
		CC(C)c1cc(-c2ccc(F)c3ccccc23)nc(N)n1 [RS-127445, 2-amino-4-(4-fluoronaphth-1-yl)-6-isopropylpyrimidine, reference compound]	defecation-suppressing action (male Wistar rats): did not show defecation-suppressing action; number of feces excreted, in comparison with the non-administration group (male Wistar rats): Significant difference was not found; 5-HT2B receptor-selective by a factor (5-HT2B receptor): ≥ 1000 times
0.24	8	CCc1c(C)n(Cc2ccc(F)cc2)c2ccc(C(=O)N[C@@H]3CCN(C)C3)cc12 [Example 238]	
0.29	2.6	CCc1c(C)n(Cc2ccc(F)cc2)c2ccc(C(=O)N[C@H]3CCN(C)C3)cc12 [Example 236]	dose from which a significant suppressing action (number of feces excreted) is shown (male Wistar rats; restraint stress loaded 3 hours after the administration): ≥ 0.3 mg/kg
		Cc1nc2cc(C(=O)N=C(N)N)ccc2n1Cc1ccc(F)cc1 [Example 244, N-(diaminomethylene)-1-(4-fluorobenzyl)-2-methyl-1H-benzimidazol-5-carboxamide]	dose from which a significant suppressing action (number of feces excreted) is shown (male Wistar rats; [1]): ≥ 3 mg/kg
0.22	4.9	CCc1c(CC)n(Cc2ccc(F)cc2)c2ccc(C(=O)N[C@H]3CCN(C)C3)cc12 [Example 237]	

Structure (SMILES)	Ki (human 5-HT2B receptor) [nM]	Ki (human 5-HT7 receptor) [nM]	other results
CC(=O)c1c(C)n(Cc2ccc(F)cc2)c2ccc(C(=O)N=C(N)N)cc12 [Example 104, 3-acetyl-N-(diaminomethylene)-1-(4-fluorobenzyl)-2-methyl-1H-indole-5-carboxamide]	0.088	1.3	

Reference: US7985764B2, “Amide derivative or salt thereof” (Astellas Pharma Inc., priority 2006, dated 2011)
